According to the supplement of paper PMC7840683:
Where a name gives a salt, the structure may show the parent alone. ± gives the standard deviation of the averaged measurements.

System: HepaRG
Assay: LDH release cytotoxicity, % of total lysis control; higher = more cytotoxic
Conditions: 48 h
Summary of the method: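 Single-lot HepaRG cells on collagen I-coated 96-well plates were exposed for 48 h in duplicate, in serum-free induction medium with 0.5% DMSO, to eight-point half-log series (test chemicals top 100 µM). Total lysis wells received 0.1% Triton X, and LDH leakage into 50 µL spent medium was read as resorufin fluorescence (CytoTox-ONE, Tecan Safire). Percent cytotoxicity was normalized to on-plate vehicle and total lysis controls and averaged over the duplicates.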

| SMILES | LDH release cytotoxicity (0.03162 µM) [%] | LDH release cytotoxicity (0.1 µM) [%] | LDH release cytotoxicity (0.3162278 µM) [%] | LDH release cytotoxicity (1 µM) [%] | LDH release cytotoxicity (3.16228 µM) [%] | LDH release cytotoxicity (10 µM) [%] | LDH release cytotoxicity (31.6228 µM) [%] | LDH release cytotoxicity (100 µM) [%] | LDH release cytotoxicity (0.031623 µM) [%] | LDH release cytotoxicity (0.316228 µM) [%] | LDH release cytotoxicity (0.0314647 µM) [%] | LDH release cytotoxicity (0.0995 µM) [%] | LDH release cytotoxicity (0.3146466 µM) [%] | LDH release cytotoxicity (0.995 µM) [%] | LDH release cytotoxicity (3.14647 µM) [%] | LDH release cytotoxicity (9.95 µM) [%] | LDH release cytotoxicity (31.4647 µM) [%] | LDH release cytotoxicity (99.5 µM) [%] |
| --- | --- | --- | --- | --- | --- | --- | --- | --- | --- | --- | --- | --- | --- | --- | --- | --- | --- | --- |
| Cc1ccc(N=CN(C)C=Nc2ccc(C)cc2C)c(C)c1 [Amitraz] | -0.945 ± 0.9 | -1.23 ± 0.17 | -2.67 ± 0.32 | -1.98 ± 0.68 | -2.06 ± 0.065 | -1.45 ± 0.35 | -0.79 ± 0.2 | 1.17 ± 1.8 |  |  |  |  |  |  |  |  |  |  |
| NC(=O)O [Ammonium carbamate] |  | -2.14 ± 1.1 |  | -2.11 ± 1.4 | -2.31 ± 0.54 | -1.92 ± 0.74 | -0.516 ± 0.34 | 0.311 ± 0.094 | -0.98 ± 0.56 | -3.38 ± 0.37 |  |  |  |  |  |  |  |  |
| O=C(O)C(F)(F)C(F)(F)C(F)(F)C(F)(F)C(F)(F)C(F)(F)C(F)(F)F [Ammonium perfluorooctanoate] | -2.46 ± 0.051 | -2 ± 0.26 | -1.7 ± 0.71 | -2.4 ± 0.45 | -1.55 ± 0.62 | -1.1 ± 0.38 | -0.665 ± 0.52 | 5.278 ± 0.027 |  |  |  |  |  |  |  |  |  |  |
| Clc1nc(Cl)nc(Nc2ccccc2Cl)n1 [Anilazine] | 0.501 ± 1.1 | 0.704 ± 0.18 | 0.988 ± 0.25 | 0.786 ± 0.59 | 0.633 ± 0.28 | 0.855 ± 0.55 | 0.799 ± 0.19 | 0.712 ± 0.08 |  |  |  |  |  |  |  |  |  |  |
| c1ccc2cc3ccccc3cc2c1 [Anthracene] |  | -2.92 ± 1.7 |  | -2.01 ± 1.3 | -2.51 ± 0.11 | -2.69 | -1.53 ± 1.4 | 2.42 ± 3.7 | -2.31 ± 1.3 | -3.34 ± 0.24 |  |  |  |  |  |  |  |  |
| O=C1c2c(O)cccc2Cc2cccc(O)c21 [Anthralin] | -2.38 ± 0.42 | -0.784 ± 0.21 | -1.25 ± 0.88 | -0.891 ± 0.4 | -0.148 ± 1.6 | -1.12 ± 0.49 | -0.933 ± 0.26 | -0.256 ± 0.28 |  |  |  |  |  |  |  |  |  |  |
| CCCCN1C(=O)C(C(O)C2CCCCC2)NC(=O)C12CCN(Cc1ccc(Oc3ccc(C(=O)O)cc3)cc1)CC2 (centres undefined) [Aplaviroc hydrochloride] | -1.85 ± 0.7 | -1.71 ± 0.38 | -3.23 ± 0.59 | -2.439 ± 0.0083 | -3.02 ± 0.42 | 0.0163 ± 0.13 | 7.4 ± 0.52 | 27.4 ± 2.6 |  |  |  |  |  |  |  |  |  |  |
| CC(=O)Oc1ccccc1C(=O)O [Aspirin] | -1.2 ± 0.093 | -0.322 ± 0.2 | 0.562 ± 0.26 | -0.207 ± 0.53 | -0.296 ± 0.42 | -0.207 ± 0.33 | 0.489 ± 0.23 | 2.14 ± 0.33 |  |  |  |  |  |  |  |  |  |  |
| COC(=O)NS(=O)(=O)c1ccc(N)cc1 [Asulam] | -0.269 ± 0.97 | -1.42 ± 0.1 | -0.821 ± 0.14 | -0.262 ± 0.22 | -1.05 ± 0.18 | -0.725 ± 0.87 | -0.233 ± 0.19 | 0.635 ± 1 |  |  |  |  |  |  |  |  |  |  |
| CCNc1nc(Cl)nc(NC(C)C)n1 [Atrazine] | -1.43 ± 0.65 | -1.36 ± 0.23 | -1.63 ± 1.4 | -2.15 ± 1.4 | -1.57 ± 0.28 | -1.86 ± 1.1 | -1.38 ± 0.22 | -0.59 ± 0.41 |  |  |  |  |  |  |  |  |  |  |
| COP(=O)(OC)SCn1c(=O)oc2cc(Cl)cnc21 [Azamethiphos] | -1.96 ± 0.53 | -2.24 ± 0.48 | -2.14 ± 0.47 | -1.66 ± 0.097 | -2.14 ± 0.29 | -1.74 ± 0.23 | 1.89 ± 0.59 | 22.6 ± 3.6 |  |  |  |  |  |  |  |  |  |  |
| Cn1cnc([N+](=O)[O-])c1Sc1ncnc2nc[nH]c12 [Azathioprine] |  |  |  |  |  |  |  |  |  |  | -0.881 ± 1.4 | -1.48 ± 0.6 | -1.64 ± 0.77 | -0.793 ± 1.6 | 1.06 ± 0.75 | 4.17 ± 1.2 | 6.78 ± 0.16 | 8.21 ± 1.2 |
| COP(=S)(OC)SCn1nnc2ccccc2c1=O [Azinphos-methyl] | -0.213 ± 1.2 | -0.757 ± 0.34 | -1.67 ± 0.55 | -2.01 ± 0.72 | -0.975 ± 0.6 | 0.0858 ± 0.12 | -0.844 ± 0.45 | 0.533 ± 0.78 |  |  |  |  |  |  |  |  |  |  |
| c1ccc(N=Nc2ccccc2)cc1 [Azobenzene] | -1.57 ± 0.37 | -1.67 ± 0.46 | -0.316 ± 1.5 | -2 ± 0.14 | -1.63 ± 0.18 | 0.0427 ± 0.32 | 1.14 ± 0.012 | 3.66 ± 1.6 |  |  |  |  |  |  |  |  |  |  |
| COC=C(C(=O)OC)c1ccccc1Oc1cc(Oc2ccccc2C#N)ncn1 [Azoxystrobin] | -1.32 ± 0.027 | -1.84 ± 0.078 | -2.03 ± 0.21 | -2.35 ± 1.2 | -2.2 ± 0.56 | -1.39 ± 0.089 | -1.83 ± 0.58 | 18.63 ± 0.13 |  |  |  |  |  |  |  |  |  |  |
| CNC(=O)Oc1cccc2c1OC(C)(C)O2 [Bendiocarb] |  | -1.64 ± 2.2 |  | -1.67 ± 1.8 | -1.78 ± 0.89 | -2.76 ± 2.2 | -2.289 ± 0.017 | -2.6 ± 0.88 | -1.26 ± 1.2 | -0.794 ± 0.9 |  |  |  |  |  |  |  |  |
| CCCCN(CC)c1c([N+](=O)[O-])cc(C(F)(F)F)cc1[N+](=O)[O-] [Benfluralin] |  | -1.73 ± 1.2 |  | -2.54 ± 0.81 | -2.56 ± 0.43 | -1.12 ± 0.72 | -1.14 ± 0.56 | -0.374 ± 0.11 | -0.0474 ± 0.18 | -1.78 ± 0.15 |  |  |  |  |  |  |  |  |
| O=C(Nc1ccccc1)c1ccccc1I [Benodanil] | -1.25 ± 0.85 | -1.19 ± 1.3 | -1.59 ± 0.61 | -2.02 ± 0.61 | -0.274 ± 0.0083 | 1.86 ± 0.57 | 5.86 ± 1.2 | 12.4 ± 0.34 |  |  |  |  |  |  |  |  |  |  |
